Results on 30 compounds are retold here after US20060100245A1, “Substituted biphenyl-4-carboxylic acid arylamide analogues” (Neurogen Corporation, priority 2002, published 2006).

Each structure is given as a SMILES string. Bounds are passed on as bounds.

The target of the experiment is T1, human capsaicin receptor (VR1) (Homo sapiens, UniProt Q8NER1).
T1 construct: transfected with the pBK-CMV expression construct encoding the full length human capsaicin receptor; expressed in transfected cells
T1 sequence (Q8NER1 whole entry): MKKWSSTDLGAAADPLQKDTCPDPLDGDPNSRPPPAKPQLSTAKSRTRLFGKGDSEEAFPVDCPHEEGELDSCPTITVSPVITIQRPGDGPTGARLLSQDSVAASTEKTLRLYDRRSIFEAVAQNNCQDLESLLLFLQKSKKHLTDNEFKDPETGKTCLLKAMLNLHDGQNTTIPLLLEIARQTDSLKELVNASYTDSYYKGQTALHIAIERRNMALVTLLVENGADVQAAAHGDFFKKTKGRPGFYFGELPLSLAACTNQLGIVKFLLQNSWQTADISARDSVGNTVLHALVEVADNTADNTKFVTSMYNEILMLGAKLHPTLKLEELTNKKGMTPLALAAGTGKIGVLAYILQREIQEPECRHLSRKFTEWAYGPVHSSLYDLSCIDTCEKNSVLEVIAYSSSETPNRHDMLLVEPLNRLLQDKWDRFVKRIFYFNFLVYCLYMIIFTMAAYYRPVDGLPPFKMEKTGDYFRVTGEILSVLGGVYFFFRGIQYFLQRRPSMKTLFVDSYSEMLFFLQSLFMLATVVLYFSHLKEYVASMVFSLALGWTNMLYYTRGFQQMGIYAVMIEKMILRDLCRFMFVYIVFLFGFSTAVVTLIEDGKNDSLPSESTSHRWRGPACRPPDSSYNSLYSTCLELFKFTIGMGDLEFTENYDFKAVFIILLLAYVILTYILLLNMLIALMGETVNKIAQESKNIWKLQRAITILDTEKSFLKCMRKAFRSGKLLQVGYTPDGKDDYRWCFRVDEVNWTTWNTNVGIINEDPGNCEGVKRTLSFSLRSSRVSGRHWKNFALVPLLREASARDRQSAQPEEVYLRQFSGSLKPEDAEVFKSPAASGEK
Kind of experiment: Capsaicin receptor binding assay ([3H]RTX competition). Conditions: read-out: Ki. The source says: This Example illustrates the preparation of VR1-transfected cells and membrane preparations for use in binding assays (Example 5) and functional assays (Example 6).
A cDNA encoding full length human capsaicin receptor (SEQ ID NO: 1, 2 or 3 of U.S. Pat. No. 6,482,611) was subcloned in the plasmid pBK-CMV (Stratagene, La Jolla, Calif.) for recombinant expression in mammalian cells.
Human embryonic kidney (HEK293) cells were transfected with the pBK-CMV expression construct encoding the full length human capsaicin receptor using standard methods. The transfected cells were selected for two weeks in media containing G418 ([…]) to obtain a pool of stably transfected cells. Independent clones were isolated from this pool by limiting dilution to obtain clonal stable cell lines for use in subsequent experiments.
For radioligand binding experiments, cells were seeded in T175 cell culture flasks in media without antibiotics and grown to approximately 90% confluency. The flasks were then washed with PBS and harvested in PBS containing 5 mM EDTA. The cells were pelleted by gentle centrifugation and stored at −80° C. until assayed.
Previously frozen cells were disrupted with the aid of a tissue homogenizer in ice-cold HEPES homogenization buffer (5mM KCl 5, 5.8 mM NaCl, 0.75 mM CaCl2, 2 mM MgCl2, 320 mM sucrose, and 10 mM HEPES pH 7.4). Tissue homogenates were first centrifuged for 10 minutes at 1000×g (4° C.) to remove the nuclear fraction and debris, and then the supernatant from the first centrifugation is further centrifuged for 30 minutes at 35,000×g (4° C.) to obtain a partially purified membrane fraction. Membranes were resuspended in the HEPES homogenization buffer prior to the assay. An aliquot of this membrane homogenate is used to determine protein concentration via the Bradford method (BIO-RAD Protein Assay Kit, #500-0001, BIO-RAD, Hercules, Calif.).
This Example illustrates a representative assay of capsaicin receptor binding that may be used to determine the binding affinity of compounds for the capsaicin (VR1) receptor.
Binding studies with [^3H] Resiniferatoxin (RTX) are carried out essentially as described by Szallasi and Blumberg (1992) J. Pharmacol. Exp. Ter. 262: 883-888. In this protocol, non-specific RTX binding is reduced by adding bovine alpha, acid glycoprotein (100 μg per tube) after the binding reaction has been terminated.
[^3H] RTX (37 Ci/mmol) is synthesized by and obtained from the Chemical Synthesis and Analysis Laboratory, National Cancer Institute-Frederick Cancer Research and Development Center, Frederick, Md. [^3H] RTX may also be obtained from commercial vendors (e.g., Amersham Pharmacia Biotech, Inc.; Piscataway, N.J.).
The membrane homogenate of Example 4 is centrifuged as before and resuspended to a protein concentration of 333 μg/ml in homogenization buffer. Binding assay mixtures are set up on ice and contain [^3H]JRTX (specific activity 2200 mCi/ml), 2 μl non-radioactive test compound, 0.25 mg/ml bovine serum albumin (Cohn fraction V), and 5×10^4−1×10^5 VR1-transfected cells. The final volume is adjusted to 500 μl (for competition binding assays) or 1,000 μl (for saturation binding assays) with the ice-cold HEPES homogenization buffer solution (pH 7.4) described above. Non-specific binding is defined as that occurring in the presence of 1 μM non-radioactive RTX (Alexis Corp.; San Diego, Calif.). For saturation binding, [^3H]RTX is added in the concentration range of […], using 1 to 2 dilutions. Typically 11 concentration points are collected per saturation binding curve.
Competition binding assays are performed in the presence of 60 pM [^3H]RTX and various concentrations of test compound. The binding reactions are initiated by transferring the assay mixtures into a 37° C. water bath and are terminated following a 60 minute incubation period by cooling the tubes on ice.

What is called Ki is the dissociation constant of the complex between target and ligand, obtained from inhibition or displacement. As for `CC(C)(C)c1ccc(NC(=O)c2ccc(-c3ccccn3)nc2)cc1` [Compound 9, [2,2′]Bipyridinyl-5-carboxylic acid (4-tert-butyl-phenyl)-amide], the Ki is less than 1 µM.
On to `CC(C)(C)c1ccc(NC(=O)c2ccc(-c3ccncc3)nc2)cc1` [Compound 11, [2,4′]Bipyridinyl-5-carboxylic acid (4-tert-butyl-phenyl)-amide], for which the inhibition constant (Ki) is less than 1 µM.
Regarding `CC(C)(C)c1ccc(NC(=O)c2ccc(-c3ncccc3C(F)(F)F)cc2N)cc1` [Compound 12, 2-Amino-N-(4-tert-butyl-phenyl)-4-(3-trifluoromethyl-pyridin-2-yl)-benzamide], the Ki was less than 1 µM.
`Nc1cc(-c2ncccc2C(F)(F)F)ccc1C(=O)Nc1ccc(C(F)(F)F)cc1` [Compound 13, 2-Amino-N-(4-trifluoromethyl-phenyl)-4-(3-trifluoromethyl-pyridin-2-yl)-benzamide]: the Ki is less than 1 µM.
Then `Nc1cc(-c2ncccc2C(F)(F)F)ccc1C(=O)Nc1ccc(C(F)(F)F)nc1` [Compound 14, 2-Amino-N-(6-trifluoromethyl-pyridin-3-yl)-4-(3-trifluoromethyl-pyridin-2-yl)-benzamide], with less than 1 µM.
Take `CC(C)(C)c1ccc(NC(=O)c2ccc(-c3ccccc3Cl)cc2)cc1` [Compound 15, 2′-Chloro-biphenyl-4-carboxylic acid (4-tert-butyl-phenyl)-amide]: the Ki is less than 1 µM.
For the compound `O=C(Nc1ccc(C(F)(F)F)cc1)c1ccc(-c2ncccc2C(F)(F)F)cc1O` [Compound 16, 2-Hydroxy-N-(4-trifluoromethyl-phenyl)-4-(3-trifluoromethyl-pyridin-2-yl)-benzamide], the Ki was less than 1 µM.
Then `CS(=O)(=O)Nc1cc(-c2ncccc2C(F)(F)F)ccc1C(=O)Nc1ccc(C(F)(F)F)cc1` [Compound 17, 2-Methanesulfonylamino-N-(4-trifluoromethyl-phenyl)-4-(3-trifluoromethyl-pyridin-2-yl)-benzamide], with less than 1 µM; and `O=C(Nc1ccc(S(=O)(=O)C(F)(F)F)cc1)c1ccc(-c2ncccc2C(F)(F)F)cc1[N+](=O)[O-]` [Compound 18, 2-Nitro-N-(4-trifluoromethanesulfonyl-phenyl)-4-(3-trifluoromethyl-pyridin-2-yl)-benzamide], with less than 1 µM; and `O=C(Nc1ccc(C(F)(F)F)cc1)c1ccc(-c2ncccc2C(F)(F)F)cc1[N+](=O)[O-]` [Compound 19, 2-Nitro-N-(4-trifluoromethyl-phenyl)-4-(3-trifluoromethyl-pyridin-2-yl)-benzamide], with less than 1 µM.
For `O=C(Nc1ccc(C(F)(F)F)nc1)c1ccc(-c2ncccc2C(F)(F)F)cc1[N+](=O)[O-]` [Compound 20, 2-Nitro-N-(6-trifluoromethyl-pyridin-3-yl)-4-(3-trifluoromethyl-pyridin-2-yl)-benzamide], the Ki is less than 1 µM.
Then `CC(C)(C)c1ccc(NC(=O)c2ccc(-c3ccccc3C(F)(F)F)cc2O)cc1` [Compound 21, 3-Hydroxy-2′-trifluoromethyl-biphenyl-4-carboxylic acid (4-tert-butyl-phenyl)-amide], with less than 1 µM; and `CC(=O)N1CCCCC1c1ccc(C(=O)Nc2ccc(C(C)(C)C)cc2)cc1` (stereo not drawn) [Compound 22, 4-(1-Acetyl-piperidin-2-yl)-N-(4-tert-butyl-phenyl)-benzamide], with less than 1 µM.
Regarding `CC(C)(C)c1ccc(NC(=O)c2ccc(-c3ncccc3N)cc2)cc1` [Compound 23, 4-(3-Amino-pyridin-2-yl)-N-(4-tert-butyl-phenyl)-benzamide], the Ki is less than 1 µM.
Then `CC(C)(C)c1ccc(NC(=O)c2ccc(-c3ccncc3N)cc2)cc1` [Compound 24, 4-(3-Amino-pyridin-4-yl)-N-(4-tert-butyl-phenyl)-benzamide], with less than 1 µM.
Then `CC(C)(C)c1ccc(NC(=O)c2ccc(-c3ncccc3NS(=O)(=O)c3ccccc3)cc2)cc1` [Compound 25, 4-(3-Benzenesulfonylamino-pyridin-2-yl)-N-(4-tert-butyl-phenyl)-benzamide], with less than 1 µM; and `Cc1cc(NC(=O)c2ccc(-c3ncccc3Cl)cc2)ccc1C(C)C` [Compound 26, 4-(3-Chloro-pyridin-2-yl)-N-(4-isopropyl-3-methyl-phenyl)-benzamide], with less than 1 µM.
Then `CC(C)c1ccc(NC(=O)c2ccc(-c3ncccc3Cl)cc2)cc1` [Compound 27, 4-(3-Chloro-pyridin-2-yl)-N-(4-isopropyl-phenyl)-benzamide], with less than 1 µM; and `O=C(Nc1ccc(C(F)(F)F)cn1)c1ccc(-c2ncccc2Cl)cc1` [Compound 28, 4-(3-Chloro-pyridin-2-yl)-N-(5-trifluoromethyl-pyridin-2-yl)-benzamide], with less than 1 µM; and `CC(C)(O)c1ccc(NC(=O)c2ccc(-c3ncccc3Cl)cc2)cc1` [Compound 29, 4-(3-Chloro-pyridin-2-yl)-N-[4-(1-hydroxy-1-methyl-ethyl)-phenyl]-benzamide], with less than 1 µM.
On to `CC(c1ccc(NC(=O)c2ccc(-c3ncccc3Cl)cc2)cc1)C(F)(F)F` (stereo not drawn) [Compound 30, 4-(3-Chloro-pyridin-2-yl)-N-[4-(2,2,2-trifluoro-1-methyl-ethyl)-phenyl]-benzamide], for which the Ki is less than 1 µM.
As for `COCC(C)(C)c1ccc(NC(=O)c2ccc(-c3ncccc3Cl)cc2)cc1` [Compound 31, 4-(3-Chloro-pyridin-2-yl)-N-[4-(2-methoxy-1,1-dimethyl-ethyl)-phenyl]-benzamide], the Ki was less than 1 µM.
With `CC(C)(C#N)c1ccc(NC(=O)c2ccc(-c3ncccc3Cl)cc2)cc1` [Compound 32, 4-(3-Chloro-pyridin-2-yl)-N-[4-(cyano-dimethyl-methyl)-phenyl]-benzamide], the Ki was less than 1 µM.
For `Cc1cc(NC(=O)c2ccc(-c3ncccc3F)cc2)ccc1C(C)C` [Compound 33, 4-(3-Fluoro-pyridin-2-yl)-N-(4-isopropyl-3-methyl-phenyl)-benzamide], the Ki was less than 1 µM.
Consider `CC(C)c1ccc(NC(=O)c2ccc(-c3ncccc3F)cc2)cc1` [Compound 34, 4-(3-Fluoro-pyridin-2-yl)-N-(4-isopropyl-phenyl)-benzamide], for which the Ki is less than 1 µM.
Take `O=C(Nc1ccc(C(F)(F)F)cc1)c1ccc(-c2ncccc2F)cc1` [Compound 35, 4-(3-Fluoro-pyridin-2-yl)-N-(4-trifluoromethyl-phenyl)-benzamide]: the Ki is less than 1 µM.
With `O=C(Nc1ccc(C(F)(F)F)cc1)c1ccc(-c2ncccc2[N+](=O)[O-])cc1` [Compound 36, 4-(3-Nitro-pyridin-2-yl)-N-(4-trifluoromethyl-phenyl)-benzamide] the figure was less than 1 µM; with `CCCCS(=O)(=O)Nc1cccnc1-c1ccc(C(=O)Nc2ccc(C(C)(C)C)cc2)cc1` [Compound 37, 4-[3-(Butane-1-sulfonylamino)-pyridin-2-yl]-N-(4-eert-butyl-phenyl)-benzamide], less than 1 µM; with `CCC(C)c1ccc(NC(=O)c2cnc(-c3ccccc3Cl)cn2)cc1` (stereo not drawn) [Compound 38, 5-(2-Chloro-phenyl)-pyrazine-2-carboxylic acid (4-sec-butyl-phenyl)-amide], less than 1 µM.
For `CC(C)(C)c1ccc(NC(=O)c2cnc(-c3ccccc3Cl)cn2)cc1` [Compound 39, 5-(2-Chloro-phenyl)-pyrazine-2-carboxylic acid (4-tert-butyl-phenyl)-amide], the Ki was less than 1 µM.
